Molecules are shown by their SMILES.

The target of one assay is T1, JAK3 (Homo sapiens, UniProt P52333).
T1 construct: purchased Invitrogen
T1 sequence (P52333 1-1124): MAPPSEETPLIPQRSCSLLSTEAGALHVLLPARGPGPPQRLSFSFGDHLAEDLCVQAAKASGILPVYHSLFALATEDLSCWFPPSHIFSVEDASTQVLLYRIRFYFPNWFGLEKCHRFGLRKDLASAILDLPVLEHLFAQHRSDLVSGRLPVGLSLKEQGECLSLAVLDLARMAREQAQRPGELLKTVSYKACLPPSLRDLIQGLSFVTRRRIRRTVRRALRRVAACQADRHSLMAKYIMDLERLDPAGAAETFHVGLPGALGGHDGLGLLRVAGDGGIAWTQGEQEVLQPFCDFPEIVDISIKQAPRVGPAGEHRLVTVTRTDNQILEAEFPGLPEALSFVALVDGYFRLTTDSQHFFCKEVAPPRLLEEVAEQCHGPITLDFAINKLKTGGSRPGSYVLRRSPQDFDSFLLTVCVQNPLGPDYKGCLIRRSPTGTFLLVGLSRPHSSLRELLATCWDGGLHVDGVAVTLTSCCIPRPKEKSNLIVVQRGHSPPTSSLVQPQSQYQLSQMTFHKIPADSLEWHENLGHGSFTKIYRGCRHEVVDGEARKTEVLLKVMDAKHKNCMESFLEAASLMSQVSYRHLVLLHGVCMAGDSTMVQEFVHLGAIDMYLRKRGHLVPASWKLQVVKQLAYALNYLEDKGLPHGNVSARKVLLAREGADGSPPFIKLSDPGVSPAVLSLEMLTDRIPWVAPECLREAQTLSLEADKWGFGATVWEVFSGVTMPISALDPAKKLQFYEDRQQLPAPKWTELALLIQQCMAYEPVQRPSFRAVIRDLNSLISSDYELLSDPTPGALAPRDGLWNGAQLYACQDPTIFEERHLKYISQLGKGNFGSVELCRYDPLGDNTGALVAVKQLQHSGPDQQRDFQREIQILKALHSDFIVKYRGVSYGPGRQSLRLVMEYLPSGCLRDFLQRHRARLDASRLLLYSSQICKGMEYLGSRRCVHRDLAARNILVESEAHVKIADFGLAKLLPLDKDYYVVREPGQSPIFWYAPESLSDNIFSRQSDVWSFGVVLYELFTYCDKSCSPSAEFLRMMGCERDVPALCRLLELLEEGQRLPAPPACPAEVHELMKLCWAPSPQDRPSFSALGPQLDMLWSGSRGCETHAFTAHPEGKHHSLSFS
The assay can be described thus: Assay for JAK3 Inhibition (phosphorylation of FAM-labeled substrate, Caliper LC-3000). To be noted: −log10(IC50), IC50 is the molar concentration at 50% inhibition; read-out: JAK3 pIC50 (converted). The format is biochemical. The method, then: (§1) A compound's ability to inhibit JAK activity may be assessed using a variety of methods, including in vitro and in vivo assays. The following in vitro assays measure a test compound's ability to inhibit JAK2- and JAK3-mediated phosphorylation of FAM-labeled JAK-specific substrates.
(§2) Purified JAK2 and JAK3 proteins were purchased from Invitrogen. JAK2 and JAK3 inhibition is determined using a black 384-well-plate format in buffer containing 50 mM HEPES, 10 mM NaCl, 10 mM MgCl2, 0.2 mM EDTA, 0.01% EDA (Brij® 35), 1 mM DTT, 0.1 mg/mL BSA at pH 7.3. Each test compound is prepared in DMSO using 2-fold serial dilutions for 11 data points and is added to the buffer so that each dilution contains 3% DMSO.
To each well is added 2 μL of 3 μM 5FAM-KKKKEEIYFFFG-NH2 and 15 μM ATP (in buffer), 2 μL of diluted test compound (3% DMSO in medium), and 2 μL of 1.2 nM JAK3 in buffer. The reaction mixture is incubated at room temperature for 60 min and is quenched by adding 50 mM HEPES, 30 mM EDTA, and 0.1% Tx-100 (pH 7.3). To quantify the fluorescent-labeled substrate and product following reaction, the test plate is loaded on a Caliper LC-3000, which measures percent of conversion by microfluidic-based separation.
(§3) Corresponding IC50 values are calculated by non-linear curve fitting of the compound concentrations and percent of inhibition to the standard IC50 equation.

The target of the next assay is T2, JAK2 (Homo sapiens, UniProt O60674).
T2 construct: purchased Invitrogen
T2 sequence (O60674 whole entry): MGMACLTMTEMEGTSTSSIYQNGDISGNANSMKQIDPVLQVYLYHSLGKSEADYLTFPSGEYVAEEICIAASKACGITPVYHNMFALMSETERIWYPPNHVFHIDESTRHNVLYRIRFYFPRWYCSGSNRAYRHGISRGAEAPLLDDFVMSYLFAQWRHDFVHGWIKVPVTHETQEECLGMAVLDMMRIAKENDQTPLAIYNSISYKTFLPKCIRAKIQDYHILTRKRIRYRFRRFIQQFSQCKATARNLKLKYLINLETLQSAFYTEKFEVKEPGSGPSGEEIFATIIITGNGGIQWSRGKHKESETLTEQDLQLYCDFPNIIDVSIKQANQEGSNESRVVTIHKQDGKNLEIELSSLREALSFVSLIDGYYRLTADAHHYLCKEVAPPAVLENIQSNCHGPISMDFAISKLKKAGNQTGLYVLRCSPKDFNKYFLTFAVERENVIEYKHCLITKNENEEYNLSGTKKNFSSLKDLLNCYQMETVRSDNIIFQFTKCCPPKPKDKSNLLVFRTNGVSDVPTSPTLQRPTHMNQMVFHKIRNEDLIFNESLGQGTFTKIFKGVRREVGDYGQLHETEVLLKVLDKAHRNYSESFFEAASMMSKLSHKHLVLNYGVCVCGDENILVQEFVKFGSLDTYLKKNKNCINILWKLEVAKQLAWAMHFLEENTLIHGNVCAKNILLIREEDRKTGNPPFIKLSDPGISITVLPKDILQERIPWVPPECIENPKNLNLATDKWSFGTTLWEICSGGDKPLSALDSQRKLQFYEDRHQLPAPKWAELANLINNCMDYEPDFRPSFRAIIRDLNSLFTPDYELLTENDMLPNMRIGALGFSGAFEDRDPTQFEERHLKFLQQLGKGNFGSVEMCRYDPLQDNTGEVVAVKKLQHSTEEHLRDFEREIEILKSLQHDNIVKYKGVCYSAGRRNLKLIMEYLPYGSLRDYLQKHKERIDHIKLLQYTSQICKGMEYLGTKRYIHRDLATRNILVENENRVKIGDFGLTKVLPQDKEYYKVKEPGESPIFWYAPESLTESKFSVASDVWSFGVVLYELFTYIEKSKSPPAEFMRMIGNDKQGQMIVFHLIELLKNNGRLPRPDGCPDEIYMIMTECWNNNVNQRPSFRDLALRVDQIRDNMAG
The assay can be described thus: Assay for JAK2 Inhibition (phosphorylation of FAM-labeled substrate, Caliper LC-3000). Type of assay: biochemical. To be noted: −log10(IC50), IC50 is the molar concentration at 50% inhibition; read-out: JAK2 pIC50 (converted). The method, then:
as §1, §2
To each well is added 2 μL of 3 μM 5FAM-KKKKEEIYFFFG-NH2 and 45 μM ATP (in buffer), 2 μL of diluted test compound (3% DMSO in medium), and 2 μL of 0.6 nM JAK2 in buffer. The reaction mixture is incubated at room temperature for 60 min and is quenched by adding 50 mM HEPeX, 30 mM EDTA, and 0.1% Tx-100 (pH 7.3). To quantify the fluorescent-labeled substrate and product following reaction, the test plate is loaded on a Caliper LC-3000, which measures percent of conversion by microfluidic-based separation.
as §3

In the case of `CC(C)(C)[C@H](C(=O)NC1CCCC1)N1Cc2ccnc3[nH]cc(c23)C1=O` [Example 26, (R)—N-cyclopentyl-3,3-dimethyl-2-(3-oxopyrrolo[4,3,2-de][2,6]naphthyridin-4(1H,3H,5H)-yl)butanamide], the IC50 is 0.01 µM on JAK3 and 0.126 µM on JAK2.

On to `CC(C)(C)[C@H](C(=O)N1CC(C#N)C1)N1Cc2c(Cl)cnc3[nH]cc(c23)C1=O` [Example 41, (R)-1-(2-(6-chloro-3-oxopyrrolo[4,3,2-de][2,6]naphthyridin-4(1H,3H,5H)-yl)-3,3-dimethylbutanoyl)azetidine-3-carbonitrile], for which the IC50 is 0.00398 µM on JAK3 and 0.0501 µM on JAK2.

Turning to `CC[C@H](C(=O)N(C)CC(C)C)N1Cc2ccnc3[nH]cc(c23)C1=O` [Example 68, (R)—N-isobutyl-N-methyl-2-(3-oxopyrrolo[4,3,2-de][2,6]naphthyridin-4(1H,3H,5H)-yl)butanamide], the IC50 at JAK3 is 2.51 µM; on JAK2, 20 µM.

As for `CC[C@H](C(=O)Nc1ccccc1)N1Cc2ccnc3[nH]cc(c23)C1=O` [Example 72, (R)-2-(3-oxopyrrolo[4,3,2-de][2,6]naphthyridin-4(1H,3H,5H)-yl)-N-phenylbutanamide], the IC50 is 0.126 µM on JAK3 and 2 µM at JAK2.

As to `CC(C)[C@H](C(=O)N1CC(C#N)C1)N1Cc2c(F)cnc3[nH]cc(c23)C1=O` [Example 42, (R)-1-(2-(6-fluoro-3-oxopyrrolo[4,3,2-de][2,6]naphthyridin-4(1H,3H,5H)-yl)-3-methylbutanoyl)azetidine-3-carbonitrile], the results for the IC50 on JAK3 and at JAK2 were 0.00631 µM and 0.126 µM, respectively.

`CC[C@H](C(=O)N1CCC(c2ccc(F)cc2)C1)N1Cc2ccnc3[nH]cc(c23)C1=O` (stereo partly drawn) [Example 58, 4-((2R)-1-(3-(4-fluorophenyl)pyrrolidin-1-yl)-1-oxobutan-2-yl)-4,5-dihydropyrrolo[4,3,2-de][2,6]naphthyridin-3(1 H)-one]: the IC50 on JAK3 is 0.316 µM; at JAK2 it was 3.16 µM.

Consider `CC[C@H](C(=O)NC1CCN(S(C)(=O)=O)CC1)N1Cc2ccnc3[nH]cc(c23)C1=O` [Example 73, (R)—N-(1-(methylsulfonyl)piperidin-4-yl)-2-(3-oxopyrrolo[4,3,2-de][2,6]naphthyridin-4(1H,3H,5H)-yl)butanamide], for which the results for the IC50 on JAK3 and on JAK2 were 0.158 µM and 3.16 µM, respectively.

Regarding `CC(C)(C)[C@H](C(=O)N1CC(C#N)C1)N1Cc2ccnc3[nH]cc(c23)C1=O` [Example 82, (R)-1-(3,3-dimethyl-2-(3-oxopyrrolo[4,3,2-de][2,6]naphthyridin-4(1H,3H,5H)-yl)butanoyl)azetidine-3-carbonitrile], the values for the IC50 on JAK3 and at JAK2 were 0.002 µM and 0.0398 µM, respectively.

Take `CC(C)[C@H](C(=O)N1CCC[C@H]1C#N)N1Cc2c(Cl)cnc3[nH]cc(c23)C1=O` [Example 84, (S)-1-((R)-2-(6-chloro-3-oxopyrrolo[4,3,2-de][2,6]naphthyridin-4(1H,3H,5H)-yl)-3-methylbutanoyl)pyrrolidine-2-carbonitrile]: the IC50 at JAK3 was 0.2 µM; on JAK2 it was 3.16 µM.

As to `CC(C)[C@H](C(=O)NC1CCS(=O)(=O)C1)N1Cc2c(F)cnc3[nH]cc(c23)C1=O` (stereo partly drawn) [Example 45, (R)-2-(6-fluoro-3-oxopyrrolo[4,3,2-de][2,6]naphthyridin-4(1H,3H,5H)-yl)-3-methyl-N-(1,1-dioxidotetrahydrothien-3-yl)butanamide], the IC50 is 0.0631 µM on JAK3 and 2 µM at JAK2.

Take `Cc1cnc2[nH]cc3c2c1CN([C@@H](C(=O)N1CC(C#N)C1)C(C)(C)C)C3=O` [Example 87, (R)-1-(3,3-dimethyl-2-(6-methyl-3-oxopyrrolo[4,3,2-de][2,6]naphthyridin-4(1H,3H,5H)-yl)butanoyl)azetidine-3-carbonitrile]: the IC50 on JAK3 was 0.00316 µM; at JAK2 it was 0.0501 µM.
